This note sets out measurements from patent US7402602B2 (priority 2001, dated 2008).

By melting point is commonly meant the temperature, or range, at which the solid turns liquid.

For the compound `CCCC(CCC)c1nc(-c2ccc(F)cc2)c[nH]1`, the melting point turned out to be 217.5 °C.

Regarding `CC(C)Cc1ccc(Cc2nc(-c3ccc(-c4ccccc4)cc3)c[nH]2)cc1` [Example 1, 4-(1,1′-biphenyl-4-yl)-2-(4-isobutylbenzyl)-1H-imidazole], the melting point was in the range of 160 to 161 °C.

`CCCCCCc1nc(-c2ccc(CC(C)C)cc2)c[nH]1` [Example 2, 2-hexyl-4-(4-isobutylphenyl)-1H-imidazole] showed a melting point of 89 to 90 °C.

As for `c1ccc(CCCc2nc(-c3ccccc3)c[nH]2)cc1` [Example 3, 4-phenyl-2-(3-phenylpropyl)-1H-imidazole], the melting point lay in the range of 106 to 108 °C.

Consider `CCCCCC(CCCCC)c1nc(-c2ccccc2)c[nH]1` [Example 4, 2-(1-pentylhexyl)-4-phenyl-1H-imidazole], for which the melting point worked out at 111.2 °C.

`CCCCCC(CCCCC)c1nc(-c2ccc(F)cc2)c[nH]1` [Example 5, 4-(4-fluorophenyl)-2-(1-pentylhexyl)-1H-imidazole] registered a melting point of 134.6 °C.

`Fc1ccc(-c2c[nH]c(CC3CCCCC3)n2)cc1` [Example 6, 2-(cyclohexylmethyl)-4-(4-fluorophenyl)1H-imidazole] displayed a melting point of 68 to 70 °C.

As for `CCCCCC(CCCCC)c1nc(-c2ccc(-c3ccccc3)cc2)c[nH]1` [Example 7, 4-(1,1′-biphenyl-4-yl)-2-(1-pentylhexyl)-1H-imidazole], the melting point worked out at 173.6 °C.

`CCCC(CCC)c1nc(-c2ccc(C(C)(C)C)cc2)c[nH]1` [Example 8, 4-(4-tert-butylphenyl)-2-(1-propylbutyl)-1H-imidazole] displayed a melting point of 200 to 202 °C.

In turn, `CCCC(CCC)c1nc(-c2ccc(-c3ccc(Br)cc3)cc2)c[nH]1` [Example 10, 4-(4′-bromo-1,1′-biphenyl-4-yl)-2-(1-propylbutyl)-1H-imidazole] registered a melting point of 182.8 °C.

On to `c1ccc(-c2ccc(-c3c[nH]c(CCC4CCCCC4)n3)cc2)cc1` [Example 11, 4-(1,1′-biphenyl-4-yl)-2-(2-cyclohexylethyl)-1H-imidazole], for which the melting point worked out at 104.9 °C.

As for `CCCCCCc1nc(-c2ccc(-c3ccccc3)cc2)c[nH]1` [Example 12, 4-(1,1′-biphenyl-4-yl)-2-hexyl-1H-imidazole], the melting point worked out at 104.8 °C.

As for `CC(C)Cc1ccc(C(C)c2nc(-c3ccc(-c4ccccc4)cc3)c[nH]2)cc1` (stereo not drawn) [Example 13, 4-(1,1′-biphenyl-4-yl)-2-[1-(4-isobutylphenyl)ethyl]-1H-imidazole], the melting point turned out to be 172.7 °C.

In turn, `CC(C)Cc1ccc(C(C)c2nc(-c3ccc(F)cc3)c[nH]2)cc1` (stereo not drawn) [Example 14, 4-(4-fluorophenyl)-2-[1-(4-isobutylphenyl)ethyl]-1H-imidazole] showed a melting point of 116 °C.

Compound `CC(c1ccccc1)c1nc(-c2ccc(-c3ccccc3)cc2)c[nH]1` (stereo not drawn) [Example 15, 4-(1,1′-biphenyl-4-yl)-2-(1-phenylethyl)-1H-imidazole] yielded a melting point of 165 to 166 °C.

In turn, `CCCC(CCC)c1nc(-c2ccc(-c3ccccc3)cc2)c[nH]1` [Example 16, 4-(1,1′-biphenyl-4-yl)-2-(1-propylbutyl)-1H-imidazole] showed a melting point of 197 to 198 °C.

Compound `c1ccc(-c2ccc(-c3c[nH]c(CC4CCCCC4)n3)cc2)cc1` [Example 17, 4-(1,1′-biphenyl-4-yl)-2-(cyclohexylmethyl)-1H-imidazole] registered a melting point of 104 to 105 °C.

`c1ccc(-c2ccc(-c3c[nH]c(CCCC4CCCCC4)n3)cc2)cc1` [Example 18, 4-(1,1′-biphenyl-4-yl)-2-(3-cyclohexylpropyl)-1H-imidazole] came in with a melting point of 118 to 119 °C.
